Measured values: the NIST ThermoML archive (doi:10.1016/j.jct.2017.06.018)

Settings: Liquid, Closed cell (Static) method

C=C(F)C(F)(F)F [2,3,3,3-tetrafluoro-1-propene]
Settings | vapor or sublimation pressure [kPa]
243.15 K | 99.4
248.15 K | 123.2
253.15 K | 151.4
258.15 K | 184.2
263.15 K | 222.4
268.15 K | 266.9
273.15 K | 317.2
278.15 K | 374.4
283.15 K | 438.5
288.15 K | 511.9
293.15 K | 591.7
